Patent US10364247B2, “Preparation and use of novel protein kinase inhibitors” (Ruijin Hospital Affiliated to Shanghai Jiao Tong University …, priority 2015, dated 2019)

How the values were obtained:
[1] = biological target: ABL1(F317I)-phosphorylated (Homo sapiens, UniProt P00519, F317I); experiment: KINOMEscan competition binding; settings: read-out: Percent Control
Method: (§1) KINOMEscan™ is based on a competition binding assay that quantitatively measures the ability of a compound to compete with an immobilized, active-site directed ligand (Fabian et al. (2005) Nat. Biotechnol. 23, 329; Karaman et al. (2008) Nat. Biotechnol. 26, 127). The compound was screened at 10 μM, and results for primary screen binding interactions are reported as ‘% Ctrl’, where lower numbers indicate stronger hits. The results for kinases targets with a % Ctrl less than 30 can be seen in Table 2.

[2] = biological target: T1, ABL2 (Homo sapiens, UniProt P42684); experiment: KINOMEscan competition binding; settings: read-out: Percent Control
T1 construct: purchased KINOMEscan (panel service)
Method: as §1

[3] = biological target: T2, AURKC (Homo sapiens, UniProt Q9UQB9); experiment: KINOMEscan competition binding; settings: read-out: Percent Control
T2 construct: purchased KINOMEscan (screening service)
Method: as §1

[4] = biological target: T3, BTK (Homo sapiens, UniProt Q06187); experiment: KINOMEscan competition binding; settings: read-out: Percent Control
T3 construct: purchased KINOMEscan (panel service)
Method: as §1

[5] = biological target: T4, EGFR (Homo sapiens, UniProt P00533); experiment: KINOMEscan competition binding; settings: read-out: Percent Control
T4 construct: purchased KINOMEscan (panel service)
Method: as §1

[6] = biological target: EGFR(G719S) (Homo sapiens, UniProt P00533, G719S); experiment: KINOMEscan competition binding; settings: read-out: Percent Control
Method: as §1

[7] = system: EGFR(L747-T751del, Sins); experiment: KINOMEscan competition binding; settings: 10 μM
Method: as §1

[8] = biological target: T5, EPHA3 (Homo sapiens, UniProt P29320); experiment: KINOMEscan competition binding; settings: read-out: Percent Control
T5 construct: purchased KINOMEscan (screening service)
Method: as §1

[9] = biological target: EPHA4 (Homo sapiens, UniProt P54764); experiment: KINOMEscan competition binding; settings: read-out: Percent Control
Method: as §1

[10] = biological target: FAK (Homo sapiens, UniProt Q05397); experiment: KINOMEscan competition binding; settings: FAK (Entrez PTK2), read-out: Percent Control
Method: as §1

[11] = biological target: FGFR1 (Homo sapiens, UniProt P11362); experiment: KINOMEscan competition binding; settings: read-out: Percent Control
Method: as §1

[12] = biological target: FLT3(K663Q) (Homo sapiens, UniProt P36888, K663Q); experiment: KINOMEscan competition binding; settings: read-out: Percent Control
Method: as §1

[13] = biological target: HCK (Homo sapiens, UniProt P08631); experiment: KINOMEscan competition binding; settings: read-out: Percent Control
Method: as §1

[14] = biological target: IKK-alpha (Homo sapiens, UniProt O15111); experiment: KINOMEscan competition binding; settings: IKK-alpha (Entrez CHUK), read-out: Percent Control
Method: as §1

[15] = biological target: JNK2 (Homo sapiens, UniProt P45984); experiment: KINOMEscan competition binding; settings: JNK2 (Entrez MAPK9), read-out: Percent Control
Method: as §1

[16] = biological target: T6, KIT(D816V) (Homo sapiens, UniProt P10721, D816V); experiment: KINOMEscan competition binding; settings: read-out: Percent Control
T6 construct: purchased KINOMEscan (panel service)
Method: as §1

[17] = biological target: T7, LCK (Homo sapiens, UniProt P06239); experiment: KINOMEscan competition binding; settings: read-out: Percent Control
T7 construct: purchased KINOMEscan (panel service)
Method: as §1

[18] = biological target: T8, LTK (Homo sapiens, UniProt P29376); experiment: KINOMEscan competition binding; settings: read-out: Percent Control
T8 construct: purchased KINOMEscan (screening platform)
Method: as §1

[19] = biological target: MAP4K4 (Homo sapiens, UniProt O95819); experiment: KINOMEscan competition binding; settings: read-out: Percent Control
Method: as §1

[20] = biological target: MLK1 (Homo sapiens, UniProt P80192); experiment: KINOMEscan competition binding; settings: MLK1 (Entrez MAP3K9), read-out: Percent Control
Method: as §1

[21] = biological target: T9, PRKCQ (Homo sapiens, UniProt Q04759); experiment: KINOMEscan competition binding; settings: read-out: Percent Control
T9 construct: purchased KINOMEscan (screening platform)
Method: as §1

[22] = biological target: T10, RIPK1 (Homo sapiens, UniProt Q13546); experiment: KINOMEscan competition binding; settings: read-out: Percent Control
T10 construct: purchased KINOMEscan (screening platform)
Method: as §1

[23] = biological target: RIPK2 (Homo sapiens, UniProt O43353); experiment: KINOMEscan competition binding; settings: read-out: Percent Control
Method: as §1

[24] = biological target: T11, RSK4(Kin.Dom.2-C-terminal) (Homo sapiens, UniProt Q9UK32); experiment: KINOMEscan competition binding; settings: RSK4(Kin.Dom.2-C-terminal) (Entrez RPS6KA6), read-out: Percent Control
T11 construct: RSK4(Kin.Dom.2-C-terminal)
Method: as §1

[25] = biological target: SLK (Homo sapiens, UniProt Q9H2G2); experiment: KINOMEscan competition binding; settings: read-out: Percent Control
Method: as §1

[26] = biological target: VEGFR2 (Homo sapiens, UniProt P35968); experiment: KINOMEscan competition binding; settings: VEGFR2 (Entrez KDR), read-out: Percent Control
Method: as §1

[27] = biological target: T12, WNK3 (Homo sapiens, UniProt Q9BYP7); experiment: KINOMEscan competition binding; settings: read-out: Percent Control
T12 construct: purchased KINOMEscan (screening service)
Method: as §1

[28] = biological target: p38-beta (Homo sapiens, UniProt Q15759); experiment: KINOMEscan competition binding; settings: p38-beta (Entrez MAPK11), read-out: Percent Control
Method: as §1

[29] = system: BaF3-NRASD12; experiment: Oncogenic RAS dependent cell proliferation (CellTiter Glo); format: cell-based, murine; settings: Mus musculus, BaF3-NRASD12 cells, 48 hours, read-out: NRas-BaF3 IC50
In short: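 BaF/3 cells transformed with NRASD12 or KRASD12, plus parental BaF/3, seeded at 5000 cells/well. Viability read by CellTiter-Glo luminescence, reagent diluted 1:4 in PBS, with vehicle and cell-free background controls.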

[30] = system: MV-4-11; experiment: Proliferation of FLT3-ITD-driven human AML cells; format: cell-based; settings: compared with Dasatinib; FIG. 5B
Method: A. Dose response curve of IA-9 in treating ITD cells is presented. ITD cells in the presence (ITD+) or absence of IL-3 (ITD−) were treated with 10 μM and 3-fold dilution series of IA-9. B. Dose response curve of IA-9 in treating MV-4-11 cells is shown. […].

Sequence of MLK1 (P80192 whole entry): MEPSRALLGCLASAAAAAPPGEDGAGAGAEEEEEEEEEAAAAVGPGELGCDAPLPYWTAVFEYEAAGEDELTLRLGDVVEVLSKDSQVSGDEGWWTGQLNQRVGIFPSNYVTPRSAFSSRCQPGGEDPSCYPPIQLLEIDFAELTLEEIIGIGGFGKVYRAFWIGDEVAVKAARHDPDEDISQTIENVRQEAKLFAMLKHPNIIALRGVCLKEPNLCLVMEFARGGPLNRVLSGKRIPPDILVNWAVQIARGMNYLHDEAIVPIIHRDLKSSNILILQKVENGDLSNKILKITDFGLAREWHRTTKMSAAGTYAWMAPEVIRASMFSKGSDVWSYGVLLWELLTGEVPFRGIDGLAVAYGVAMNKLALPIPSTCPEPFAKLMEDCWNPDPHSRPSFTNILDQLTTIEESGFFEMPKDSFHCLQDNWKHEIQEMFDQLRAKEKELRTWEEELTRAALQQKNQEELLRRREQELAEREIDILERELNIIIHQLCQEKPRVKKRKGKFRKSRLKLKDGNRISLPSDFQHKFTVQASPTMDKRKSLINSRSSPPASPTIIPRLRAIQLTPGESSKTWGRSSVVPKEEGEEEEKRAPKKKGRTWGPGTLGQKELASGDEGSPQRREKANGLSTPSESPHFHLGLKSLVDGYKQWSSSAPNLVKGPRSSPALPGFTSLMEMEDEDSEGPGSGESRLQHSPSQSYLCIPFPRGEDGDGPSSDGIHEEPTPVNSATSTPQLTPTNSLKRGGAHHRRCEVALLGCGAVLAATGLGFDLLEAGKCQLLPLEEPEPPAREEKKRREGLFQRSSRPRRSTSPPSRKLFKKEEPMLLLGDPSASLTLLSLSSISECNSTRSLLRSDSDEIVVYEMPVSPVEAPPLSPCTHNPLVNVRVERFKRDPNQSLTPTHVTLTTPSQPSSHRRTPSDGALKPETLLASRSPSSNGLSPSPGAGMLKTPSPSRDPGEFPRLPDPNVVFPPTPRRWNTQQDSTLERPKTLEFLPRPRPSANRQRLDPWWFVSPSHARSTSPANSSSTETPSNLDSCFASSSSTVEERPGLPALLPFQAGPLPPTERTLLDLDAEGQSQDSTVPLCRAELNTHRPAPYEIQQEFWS
T8 sequence (P29376 17-864): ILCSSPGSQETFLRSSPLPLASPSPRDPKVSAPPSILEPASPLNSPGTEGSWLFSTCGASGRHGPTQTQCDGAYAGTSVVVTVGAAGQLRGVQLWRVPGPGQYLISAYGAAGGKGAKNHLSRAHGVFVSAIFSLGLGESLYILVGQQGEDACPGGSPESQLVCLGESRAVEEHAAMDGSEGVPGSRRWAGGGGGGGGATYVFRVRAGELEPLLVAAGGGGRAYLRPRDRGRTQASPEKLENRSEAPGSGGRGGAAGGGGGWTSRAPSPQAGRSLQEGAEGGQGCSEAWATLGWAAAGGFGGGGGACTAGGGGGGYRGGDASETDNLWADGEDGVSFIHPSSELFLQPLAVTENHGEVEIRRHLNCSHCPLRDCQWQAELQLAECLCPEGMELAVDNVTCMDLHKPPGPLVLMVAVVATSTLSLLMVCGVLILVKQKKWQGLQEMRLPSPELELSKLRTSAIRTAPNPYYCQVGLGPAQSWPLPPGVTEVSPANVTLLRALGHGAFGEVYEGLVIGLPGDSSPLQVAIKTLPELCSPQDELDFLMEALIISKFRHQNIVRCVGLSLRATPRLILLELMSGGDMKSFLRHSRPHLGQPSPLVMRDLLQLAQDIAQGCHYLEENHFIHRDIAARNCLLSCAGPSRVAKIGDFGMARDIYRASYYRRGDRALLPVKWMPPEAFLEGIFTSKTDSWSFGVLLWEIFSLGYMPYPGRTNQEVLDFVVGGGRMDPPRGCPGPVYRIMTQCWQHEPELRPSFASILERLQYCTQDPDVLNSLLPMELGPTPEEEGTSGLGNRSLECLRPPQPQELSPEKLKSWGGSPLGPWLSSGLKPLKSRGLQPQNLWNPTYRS
Sequence of MAP4K4 (O95819 whole entry): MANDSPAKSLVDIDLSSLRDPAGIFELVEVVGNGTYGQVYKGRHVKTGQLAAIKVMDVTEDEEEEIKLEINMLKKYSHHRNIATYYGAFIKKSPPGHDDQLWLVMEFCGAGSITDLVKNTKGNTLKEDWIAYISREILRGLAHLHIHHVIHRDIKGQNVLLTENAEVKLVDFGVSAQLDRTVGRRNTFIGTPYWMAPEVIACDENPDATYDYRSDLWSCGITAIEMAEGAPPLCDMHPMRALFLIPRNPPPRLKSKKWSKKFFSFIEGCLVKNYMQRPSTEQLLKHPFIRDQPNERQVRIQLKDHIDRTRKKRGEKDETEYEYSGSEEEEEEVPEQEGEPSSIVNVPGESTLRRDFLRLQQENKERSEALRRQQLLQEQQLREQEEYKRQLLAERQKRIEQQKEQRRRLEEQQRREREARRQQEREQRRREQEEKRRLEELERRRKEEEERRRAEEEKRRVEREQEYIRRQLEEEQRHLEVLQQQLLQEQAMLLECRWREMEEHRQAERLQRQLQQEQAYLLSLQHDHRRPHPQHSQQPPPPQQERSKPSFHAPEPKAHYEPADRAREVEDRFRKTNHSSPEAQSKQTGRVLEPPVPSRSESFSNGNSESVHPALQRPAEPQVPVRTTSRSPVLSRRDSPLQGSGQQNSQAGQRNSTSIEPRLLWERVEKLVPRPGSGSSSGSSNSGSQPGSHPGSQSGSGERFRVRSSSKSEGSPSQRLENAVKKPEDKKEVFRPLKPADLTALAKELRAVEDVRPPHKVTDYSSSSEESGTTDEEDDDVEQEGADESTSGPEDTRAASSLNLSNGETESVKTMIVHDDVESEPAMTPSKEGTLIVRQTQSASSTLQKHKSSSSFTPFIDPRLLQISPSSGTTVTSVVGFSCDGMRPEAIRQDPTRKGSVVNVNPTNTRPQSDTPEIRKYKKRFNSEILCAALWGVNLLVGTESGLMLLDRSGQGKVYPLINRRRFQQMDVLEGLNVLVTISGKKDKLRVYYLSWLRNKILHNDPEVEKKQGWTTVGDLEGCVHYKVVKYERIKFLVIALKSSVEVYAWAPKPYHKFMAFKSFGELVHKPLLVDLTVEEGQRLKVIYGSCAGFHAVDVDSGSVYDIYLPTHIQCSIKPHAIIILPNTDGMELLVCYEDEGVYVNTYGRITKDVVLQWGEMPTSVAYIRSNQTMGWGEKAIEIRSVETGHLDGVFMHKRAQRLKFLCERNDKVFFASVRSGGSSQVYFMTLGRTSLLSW
Sequence of SLK (Q9H2G2 whole entry): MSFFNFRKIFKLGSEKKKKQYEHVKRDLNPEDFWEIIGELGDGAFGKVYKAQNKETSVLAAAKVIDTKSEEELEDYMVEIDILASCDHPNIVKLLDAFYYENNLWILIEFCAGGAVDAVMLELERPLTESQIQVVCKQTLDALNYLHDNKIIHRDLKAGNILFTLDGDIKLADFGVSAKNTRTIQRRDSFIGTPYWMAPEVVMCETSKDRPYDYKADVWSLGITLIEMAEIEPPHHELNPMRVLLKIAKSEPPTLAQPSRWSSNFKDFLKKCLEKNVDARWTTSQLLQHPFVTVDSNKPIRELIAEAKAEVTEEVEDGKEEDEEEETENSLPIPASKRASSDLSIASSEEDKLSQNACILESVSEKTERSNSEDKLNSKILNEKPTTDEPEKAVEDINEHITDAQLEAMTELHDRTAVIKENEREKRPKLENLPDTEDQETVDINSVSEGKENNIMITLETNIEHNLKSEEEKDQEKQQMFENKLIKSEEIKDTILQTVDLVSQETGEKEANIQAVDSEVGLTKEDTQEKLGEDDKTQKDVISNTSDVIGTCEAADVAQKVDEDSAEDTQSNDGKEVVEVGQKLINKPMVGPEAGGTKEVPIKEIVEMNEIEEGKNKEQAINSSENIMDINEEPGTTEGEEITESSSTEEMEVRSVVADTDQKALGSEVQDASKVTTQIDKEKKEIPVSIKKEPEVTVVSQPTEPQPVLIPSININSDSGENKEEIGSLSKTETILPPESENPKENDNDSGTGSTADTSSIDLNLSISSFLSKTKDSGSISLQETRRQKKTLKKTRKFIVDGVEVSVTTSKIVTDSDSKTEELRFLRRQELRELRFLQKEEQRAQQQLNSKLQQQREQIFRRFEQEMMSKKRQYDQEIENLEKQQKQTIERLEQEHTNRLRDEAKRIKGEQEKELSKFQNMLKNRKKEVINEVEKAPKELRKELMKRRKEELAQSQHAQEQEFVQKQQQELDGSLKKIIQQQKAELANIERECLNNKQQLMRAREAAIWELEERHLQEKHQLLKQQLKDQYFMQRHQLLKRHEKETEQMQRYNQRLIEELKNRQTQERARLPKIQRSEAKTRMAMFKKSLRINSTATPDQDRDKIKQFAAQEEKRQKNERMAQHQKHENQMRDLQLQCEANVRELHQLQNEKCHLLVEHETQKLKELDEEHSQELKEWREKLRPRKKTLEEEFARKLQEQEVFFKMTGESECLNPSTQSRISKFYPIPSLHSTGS
Sequence of HCK (P08631 whole entry): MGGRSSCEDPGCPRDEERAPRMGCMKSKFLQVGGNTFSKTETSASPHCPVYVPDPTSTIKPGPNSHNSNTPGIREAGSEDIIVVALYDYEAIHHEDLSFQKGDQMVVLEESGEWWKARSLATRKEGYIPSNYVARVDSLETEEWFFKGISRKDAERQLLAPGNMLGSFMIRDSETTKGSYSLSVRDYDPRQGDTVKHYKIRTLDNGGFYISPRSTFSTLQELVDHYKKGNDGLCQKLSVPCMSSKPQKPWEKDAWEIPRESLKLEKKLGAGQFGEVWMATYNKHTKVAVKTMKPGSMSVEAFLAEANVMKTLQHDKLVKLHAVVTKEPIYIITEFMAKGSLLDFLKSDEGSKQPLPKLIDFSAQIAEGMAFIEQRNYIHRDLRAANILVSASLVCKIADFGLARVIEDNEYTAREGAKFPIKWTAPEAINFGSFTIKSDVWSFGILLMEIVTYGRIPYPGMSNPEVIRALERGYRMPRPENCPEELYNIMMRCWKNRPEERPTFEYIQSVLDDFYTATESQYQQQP

SMILES: Cc1ccc(Nc2ncc3c(n2)N(C)CN(c2cc(NC(=O)c4cccc(C(F)(F)F)c4)ccc2C)C3)cn1 [IA-9, N-(4-methyl-3-(1-methyl-7-((6-methylpyridin-3-yl)amino)-1,4-dihydropyrimido[4,5-d]pyrimidin-3(2H)-yl)phenyl)-3-(trifluoromethyl)benzamide]
- remaining binding at 10 µM [1]: 4.1%
- remaining binding at 10 µM [2]: 0.1%
- remaining binding at 10 µM [3]: 6.9%
- remaining binding at 10 µM [4]: 0.15%
- remaining binding at 10 µM [5]: 0.05%
- remaining binding at 10 µM [6]: 0%
- Percent Control [7]: 0.4 % Ctrl
- remaining binding at 10 µM [8]: 11%
- remaining binding at 10 µM [9]: 0%
- remaining binding at 10 µM [10]: 6.6%
- remaining binding at 10 µM [11]: 1.3%
- remaining binding at 10 µM [12]: 0.55%
- remaining binding at 10 µM [13]: 0.55%
- remaining binding at 10 µM [14]: 1%
- remaining binding at 10 µM [15]: 0.7%
- remaining binding at 10 µM [16]: 0.05%
- remaining binding at 10 µM [17]: 0.15%
- remaining binding at 10 µM [18]: 22%
- remaining binding at 10 µM [19]: 0.6%
- remaining binding at 10 µM [20]: 5.7%
- remaining binding at 10 µM [21]: 25%
- remaining binding at 10 µM [22]: 28%
- remaining binding at 10 µM [23]: 6%
- remaining binding at 10 µM [24]: 2.6%
- remaining binding at 10 µM [25]: 6.1%
- remaining binding at 10 µM [26]: 2%
- remaining binding at 10 µM [27]: 18%
- remaining binding at 10 µM [28]: 0%
- IC50 [29]: 0.38 µM
- suppression of growth of MV-4-11 [30]: much more effectively than did Dasatinib
